Laboratory results: US20040037022A1, “Aminoalcohol derivatives” (priority 2000, published 2004)

Assays:
anesthetized dog = assay: Effect on the increase in intravesical pressure induced by carbachol in anesthetized dog; type: in vivo; conditions: 0.32 mg/kg by intra-duodena route 30 minutes before carbachol (1.8 μg/kg); female Beagle dogs under halothane anesthesia; N = 2; Control 7.0 ± 1.0
Method: Effect on the increase in intravesical pressure induced by carbachol in anesthetized dog
Female Beagle dogs weighing 8.0-15.0 kg were fasted for 24 hours and maintained under halothane anesthesia. A 12F Foley catheter was lubricated with water soluble jelly, inserted into the urethral orifice and advanced approximately 10 cm until the balloon tip was placed well inside the bladder. The balloon was then inflated with 5 ml of room air and catheter slowly withdrawn just part the first resistance that is felt at the bladder neck. Urine was completely drained out through the catheter, and 30 ml of biological saline was infused. The catheter was connected to pressure transducer, and intravesical pressure was continuously recorded. The test compound was injected by intra-duodena route at 30 minutes before the administration of carbachol (1.8 μg/kg).

melting point [°C] | SMILES | Increase in intravesical pressure (anesthetized dog) [mmHg]
124 to 125 | O=C(Nc1ccc(C[C@@H](CO)NC[C@H](O)COc2ccccc2)cc1)c1ccccc1 [4-(2), N-[4-[(2S)-3-Hydroxy-2-[[(2S)-2-hydroxy-3-phenoxypropyl)amino]propyl]phenyl)benzamide] | 
115 to 116 | CN(C(=O)c1ccccc1)c1ccc(C[C@@H](CO)NC[C@H](O)COc2ccccc2)cc1 [4-(11), N-[4-[(2S)-3-Hydroxy-2-[[(2S)-2-hydroxy-3-phenoxypropyl]amino]propyl]phenyl]-N-methylbenzamide] | 
129 to 130 | CCNC(=O)Nc1ccc(C[C@@H](CO)NC[C@H](O)COc2ccccc2)cc1 [Example 2, N-ethyl-N′-[4-[(2S)-3-hydroxy-2-[[(2S)-2-hydroxy-3-phenoxypropyl]amino]-propyl]phenyl]urea] | 
 | O=C(Nc1ccc(C[C@@H](CO)NC[C@H](O)COc2ccccc2)cc1)c1ccc[nH]1 [Test Compound (1), N-[4-[(2S)-3-Hydroxy-2-[[(2S)-2-hydroxy-3-phenoxypropyl)amino]propyl]phenyl]-1H-pyrrole-2-carboxamide] | 2.6 ± 0.05
